From patent publication US20060009493A1, “Indolinone hydrazides as c-Met inhibitors” (Sugen, Inc., priority 2003, published 2006) come the findings set out here.

pIC50: −log10 of the molar value. Values joined by “and” are separate entries in the source; they are usually repeats but may differ in a detail not shown here. Equal entries are not always repeated.

The target of the assay is T1, GST fusion protein containing the Met kinase domain (Homo sapiens, UniProt P08581).
T1 construct: Purified GST fusion protein containing the Met kinase domain, Sugen, Inc
T1 sequence (P08581 1078-1345 limits assumed): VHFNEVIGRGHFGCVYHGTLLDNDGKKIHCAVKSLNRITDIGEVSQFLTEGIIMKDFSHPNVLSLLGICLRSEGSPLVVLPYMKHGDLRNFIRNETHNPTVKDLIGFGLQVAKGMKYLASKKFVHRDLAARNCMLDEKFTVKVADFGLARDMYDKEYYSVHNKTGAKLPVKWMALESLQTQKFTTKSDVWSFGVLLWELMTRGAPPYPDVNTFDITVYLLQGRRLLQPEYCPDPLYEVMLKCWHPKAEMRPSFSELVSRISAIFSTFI
Description: MET Transphosphorylation Assay (ELISA, poly(Glu,Tyr) 4:1 substrate). Type of assay: biochemical. Particulars: met transphosphorylation of poly(glutamic acid:tyrosine 4:1) substrate; two values in a cell separated by '/'. Here is the method: MET Transphosphorylation Assay
This assay is used to measure phosphotyrosine levels on a poly(glutamic acid:tyrosine (4:1)) substrate as a means for identifying agonists/antagonists of met transphosphorylation of the substrate.
• 1. […] PBS, Gibco Catalog # 450-1300EB • 4. 50 mM HEPES • 5. […] Purified GST fusion protein containing the Met kinase domain, Sugen, Inc. • 7. TBST Buffer. • 8. 10% aqueous (MilliQue H2O) DMSO. • 9. […] 2× Kinase Dilution Buffer: for 100 ml, mix 10 mL 1M HEPES at pH 7.5 with 0.4 mL 5% BSA/PBS, 0.2 mL 0.1 M sodium orthovanadate and 1 mL 5M sodium chloride in 88.4 mL dH2O. • 11. 4×ATP Reaction Mixture: for 10 mL, mix 0.4 mL 1 M manganese chloride and 0.02 mL 0.1 M ATP in […] dH2O. • 12. 4× Negative Controls Mixture: for 10 mL, mix 0.4 mL 1 M manganese chloride in 9.6 mL dH2O.
13. […] 500 mM EDTA. • 15. Antibody Dilution Buffer: for 100 mL, mix 10 mL 5% BSA/PBS, 0.5 mL 5% Carnation Instant Milk® in PBS and 0.1 mL 0.1 M sodium orthovanadate in 88.4 mL TBST. • 16. Rabbit polyclonal antophosphotyrosine antibody, Sugen, Inc. • 17. Goat anti-rabbit horseradish peroxidase conjugated antibody, Biosource, Inc. • 18. ABTS Solution: for 1 L, mix 19.21 g citric acid, 35.49 g Na2HPO4 and 500 mg ABTS with sufficient dH2O to make 1 L. • 19. ABTS/H2O2: mix 15 mL ABST solution with 2 μL H2O2 five minutes before use. • 20. 0.2 M HCl Procedure: • 1. Coat ELISA plates with 2 μg Poly(Glu-Tyr) in 100 μL PBS, store overnight at 4° C. • 2. Block plate with 150 μL of 5% BSA/PBS for 60 min. • 3. Wash plate twice with PBS, once with 50 mM Hepes buffer pH 7.4. • 4. Add 50 μl of the diluted kinase to all wells. (Purified kinase is diluted with Kinase Dilution Buffer. Final concentration should be 10 ng/well.) • 5. Add 25 μL of the test compound (in 4% DMSO) or DMSO alone (4% in dH2O) for controls to plate. • 6. Incubate the kinase/compound mixture for 15 minutes. • 7. Add 25 μL of 40 mM MnCl2 to the negative control wells. • 8. Add 25 μL ATP/MnCl2 mixture to the all other wells (except the negative controls). Incubate for 5 min. • 9. Add 25 μL 500 mM EDTA to stop reaction. • 10. Wash plate 3× with TBST. • 11. Add 100 μL rabbit polyclonal anti-Ptyr diluted 1:10,000 in Antibody Dilution Buffer to each well. Incubate, with shaking, at room temperature for one hour. • 12. Wash plate 3× with TBST. • 13. […] Add 100 μL per well and incubate at room temperature, with shaking, for one hour. • 14. Wash plate 1× with PBS. • 15. Add 100 μl of ABTS/H2O2 solution to each well. • 16. If necessary, stop the development reaction with the addition of […] of 0.2M HCl per well. • 17.
Usually pIC50 stands for −log10 of the IC50, conventionally taken in molar units. A lower pIC50 goes with a large IC50. On to `O=C(Cc1ccc(OCCN2CCCC2)cc1)N/N=C1\C(=O)Nc2ccccc21` [Example I-1], for which the negative logarithm of the IC50 (pIC50) was 4.98.
In the case of `O=C1Nc2ccccc2/C1=N/NC(=O)C(O)c1ccc(O)cc1` (centres unmarked) [Example I-3, Hydroxy-(4-hydroxy-phenyl)-acetic acid [(3Z)-2-oxo-1,2-dihydro-indol-3-ylidene]-hydrazide], the pIC50 is 4.97.
The value for `CC(=O)Nc1ccc(CC(=O)N/N=C2\C(=O)Nc3ccccc32)cc1` [Example I-4, N-[4-[(3Z)-2-Oxo-1,2-dihydro-indol-3-ylidene-hydrazinocarbonylmethyl]-phenyl]-acetamide] was below 4.70.
The value for `COC(C(=O)N/N=C1\C(=O)Nc2ccccc21)c1ccccc1` (centres unmarked) [Example I-5, Methoxy-phenyl-acetic acid [(3Z)-2-oxo-1,2-dihydro-indol-3-ylidene]-hydrazide] was < 4.70 and 4.87; that for `O=C1Nc2ccccc2/C1=N/NC(=O)C1(c2ccccc2)CC1` [Example I-6, 1-Phenyl-cyclopropanecarboxylic acid [(3Z)-2-oxo-1,2-dihydro-indol-3-ylidene]-hydrazide] was below 4.70.
As for `O=C1Nc2ccccc2/C1=N/NC(=O)C(CO)c1ccccc1` (centres unmarked) [Example I-7, 3-Hydroxy-2-phenyl-propionic acid [(3Z)-2-oxo-1,2-dihydro-indol-3-ylidene]-hydrazide], the figure is below 4.70; as for `O=C(Cc1ccc(O)cc1)N/N=C1\C(=O)Nc2ccc(S(=O)(=O)Cc3c(Cl)cccc3Cl)cc21` [Example I-8, (4-Hydroxy-phenyl)-acetic acid [(3Z)-5-(2,6-dichloro-phenylmethanesulfonyl)-2-oxo-1,2-dihydro-indol-3-ylidene]-hydrazide], 8.15.
Turning to `CS(=O)(=O)c1ccc2c(c1)/C(=N/NC(=O)Cc1ccc(O)cc1)C(=O)N2` [Example I-9, (4-Hydroxy-phenyl)-acetic acid [(3Z)-5-methanesulfonyl-2-oxo-1,2-dihydro-indol-3-ylidene]-hydrazide], the pIC50 was > 8.04 and 7.66.
For the compound `O=C(Cc1ccc(O)cc1)N/N=C1\C(=O)Nc2ccc(C(=O)O)cc21` [Example I-10, (3Z)-3-{[2-(4-Hydroxy-phenyl)-acetyl]-hydrazono}-(3Z)-2-oxo-2,3-dihydro-1H-indole-5-carboxylic acid], the pIC50 is 6.05.
With `COC(=O)c1ccc2c(c1)/C(=N/NC(=O)Cc1ccc(O)cc1)C(=O)N2` [Example I-11, (3Z)-3-{[2-(4-Hydroxy-phenyl)-acetyl]-hydrazono}-(3Z)-2-oxo-2,3-dihydro-1H-indole-5-carboxylic acid methyl ester], the pIC50 was 7.37.
`CN1CCN(C(=O)c2ccc3c(c2)/C(=N/NC(=O)Cc2ccc(O)cc2)C(=O)N3)CC1` [Example I-12, (4-Hydroxy-phenyl)-acetic acid [(3Z)-5-(4-methyl-piperazine-1-carbonyl)-2-oxo-1,2-dihydro-indol-3-ylidene]-hydrazide] had a pIC50 of 7.11. Compared with the last compound, the pIC50 is 0.26 log units lower.
The value for `O=C(Cc1ccc(O)cc1)N/N=C1\C(=O)Nc2ccc(Br)c(-c3cccc(F)c3)c21` [Example I-13, (4-Hydroxy-phenyl)-acetic acid [(3Z)-5-bromo-4-(3-fluoro-phenyl)-2-oxo-1,2-dihydro-indol-3-ylidene]-hydrazide] was 5.97.
As for `O=C(Cc1ccc(O)cc1)N/N=C1\C(=O)Nc2cccc(-c3cccc(F)c3)c21` [Example I-14, (4-Hydroxy-phenyl)-acetic acid [(3Z)-4-(3-fluoro-phenyl)-2-oxo-1,2-dihydro-indol-3-ylidene]-hydrazide], the figure is 6.30.
As for `O=C(Cc1ccc(O)cc1)N/N=C1\C(=O)Nc2cccc(-c3ccc(F)cc3)c21` [Example I-15, (4-Hydroxy-phenyl)-acetic acid [(3Z)-4-(4-fluoro-phenyl)-2-oxo-1,2-dihydro-indol-3-ylidene]-hydrazide], the figure is 6.05.
As to `CC(C(=O)N/N=C1\C(=O)Nc2cccc(-c3cccc(F)c3)c21)c1ccc(O)cc1` (centres unmarked) [Example I-16, 2-(4-Hydroxy-phenyl)-propionic acid [(3Z)-4-(3-fluoro-phenyl)-2-oxo-1,2-dihydro-indol-3-ylidene]-hydrazide], the pIC50 is 6.85.
The value for `O=C(Cc1ccc(O)cc1)N/N=C1\C(=O)Nc2ccc(OC(F)(F)F)cc21` [Example I-17, (4-Hydroxy-phenyl)-acetic acid [(3Z)-2-oxo-5-trifluoromethoxy-1,2-dihydro-indol-3-ylidene]-hydrazide] was 7.24; that for `O=C(Cc1ccc(O)cc1)N/N=C1\C(=O)Nc2cccc(C3CCNCC3)c21` [Example I-18, (4-Hydroxy-phenyl)-acetic acid [(3Z)-2-oxo-4-piperidin-4-yl-1,2-dihydro-indol-3-ylidene]-hydrazide] was below 4.70.
As for `CSc1ccc(CC(=O)N/N=C2\C(=O)Nc3ccccc32)cc1` [Example I-19, (4-Methylsulfanyl-phenyl)-acetic acid [(3Z]-2-oxo-1,2-dihydro-indol-3-ylidene]-hydrazide], the figure is below 4.70; as for `O=C(Cc1ccc(F)cc1)N/N=C1\C(=O)Nc2ccc(C(=O)N3CCC(NC4CC4)CC3)c(Cl)c21` [Example I-20, (4-Fluoro-phenyl)-acetic acid [(3Z)-4-chloro-5-(4-cyclopropylamino-piperidine-1-carbonyl)-2-oxo-1,2-dihydro-indol-3-ylidene]-hydrazide], 6.37.
The value for `CS(=O)(=O)c1ccc(CC(=O)N/N=C2\C(=O)Nc3ccccc32)cc1` [Example I-21, (4-Methanesulfonyl-phenyl)-acetic acid [(3Z)-2-oxo-1,2-dihydro-indol-3-ylidene]-hydrazide] was below 4.70; that for `O=C(Cc1ccc2c(c1)OCO2)N/N=C1\C(=O)Nc2ccc(Br)cc21` [Example I-22, Benzo[1,3]dioxol-5-yl-acetic acid [(3Z)-5-bromo-2-oxo-1,2-dihydro-indol-3-ylidene]-hydrazide] was 6.60.
Turning to `O=C(Cc1ccc2c(c1)OCO2)N/N=C1\C(=O)Nc2ccccc21` [Example I-23, Benzo[1,3]dioxol-5-yl-acetic acid [(3Z)-2-oxo-1,2-dihydro-indol-3-ylidene]-hydrazide], the pIC50 was 6.82. Against the preceding compound, the pIC50 is 0.22 log units higher.
`O=C(Cc1ccc2c(c1)OCO2)N/N=C1\C(=O)Nc2c(Cl)ccc(Cl)c21` [Example I-24, Benzo[1,3]dioxol-5-yl-acetic acid [(3Z)-4,7-dichloro-2-oxo-1,2-dihydro-indol-3-ylidene]-hydrazide]: the pIC50 is 6.96.
As for `CN1CCN(S(=O)(=O)c2ccc3c(c2)/C(=N/NC(=O)Cc2ccc(O)cc2)C(=O)N3)CC1` [Example I-25, (4-Hydroxy-phenyl)-acetic acid [(3Z)-5-(4-methyl-piperazine-1-sulfonyl)-2-oxo-1,2-dihydro-indol-3-ylidene]-hydrazide], the figure is 7.11.
As for `O=C(Cc1ccc(O)cc1)N/N=C1\C(=O)Nc2ccc(S(=O)(=O)NCCN3CCOCC3)cc21` [Example I-26, (3Z)-3-{[2-(4-Hydroxy-phenyl)-acetyl]-hydrazono}-2-oxo-2,3-dihydro-1H-indole-5-sulfonic acid (2-morpholin-4-yl-ethyl)-amide], the figure is 7.11; as for `CC(C(=O)N/N=C1\C(=O)Nc2ccc(S(=O)(=O)NCCN3CCOCC3)cc21)c1ccc(O)cc1` (centres unmarked) [Example I-27, (3Z)-3-{[2-(4-Hydroxy-phenyl)-propionyl]-hydrazono}-2-oxo-2,3-dihydro-1H-indole-5-sulfonic acid (2-morpholin-4-yl-ethyl)-amide], 6.41.
